# Data taken from patent publication US12564644B2, “Cyclodextrin complexes of specialized proresolving mediators” (THETIS PHARMACEUTICALS LLC, priority 2022, dated 2026).
# Experiments:
# [1] = Long-term solid-state chemical stability by HPLC, 24 weeks accelerated conditions (Example 9); format: physicochemical; conditions: for RvE1 Area % (error +/− 1%) Baseline: 40° C., 75% relative humidity, exposed to air; for % Change at Week 24 vs Baseline (degradation rate) / RvE1 Area % (error +/− 1%) Week 8 / RvE1 Area % (error +/− 1%) Week 16 / RvE1 Area % (error +/− 1%) Week 24: accelerated conditions
# Protocol: The stability of RvE1-MgLys alone (“RvE1 Control”) and complexed with cyclodextrins (“RvE1 CD Complexes”) was evaluated. Samples of the test articles were placed in open test tubes and maintained at 40° C. and 75% relative humidity, exposed to air, for 16 weeks. […] Briefly, HPLC analysis was performed on a Halo Guard column (Halo C18 4.6×150 mm, 2.7 μm), mounted on an Agilent HPLC system equipped with a UV detector (272 nm detection). The mobile phase consisted of a gradient between solution A, water, and solution B, methanol, both containing 100 mM of ammonium formate at pH 4.0. The gradient program was 95-0% with respect to solution A and 5-100% with respect to solution B. The flow rate was 0.9 mL/min over 50 minutes. Lack of stability was indicated by a reduction in the area percent purity (area %) of the single major peak of RvE1 (retention time of 31.3 minutes) and the appearance of new HPLC peaks or an increase in the area % of pre-existing impurities. All HPLC measurements of RvE1 purity and degradant levels were calculated based on area percent relative to the detectable components of the molecule including isomers and epimers of RvE1, impurities and degradants induced by the test conditions.
# A study of the chemical stability of both RvE1-Mg-Lys alone and sodium RvE1 (“Na-RvE1”) alone and complexed with cyclodextrins was evaluated over 24 weeks. Samples of the test articles as solids were placed in open test tubes and maintained at 40° C. and 75% relative humidity, exposed to air.
# [2] = Chemical stability in solution (deionized water) by HPLC, 16 weeks accelerated conditions (Example 10); format: physicochemical; conditions: for RvE1 Area % Baseline: 2 mg/ml of RvE1, 40° C., 75% relative humidity, exposed to air; for % Change at Week 16 vs Baseline / RvE1 Area % Week 8 / RvE1 Area % Week 16: 2 mg/ml of RvE1, accelerated conditions
# Protocol: The stability of […] alone (“RvE1 Control”) and complexed with cyclodextrins (“RvE1 CD Complexes”) was evaluated. Samples of the test articles were placed in open test tubes and maintained at 40° C. and 75% relative humidity, exposed to air, for 16 weeks. […] Briefly, HPLC analysis was performed on a Halo Guard column (Halo C18 4.6×150 mm, 2.7 μm), mounted on an Agilent HPLC system equipped with a UV detector (272 nm detection). The mobile phase consisted of a gradient between solution A, water, and solution B, methanol, both containing 100 mM of ammonium formate at pH 4.0. The gradient program was 95-0% with respect to solution A and 5-100% with respect to solution B. The flow rate was 0.9 mL/min over 50 minutes. Lack of stability was indicated by a reduction in the area percent purity (area %) of the single major peak of RvE1 (retention time of 31.3 minutes) and the appearance of new HPLC peaks or an increase in the area % of pre-existing impurities. All HPLC measurements of RvE1 purity and degradant levels were calculated based on area percent relative to the detectable components of the molecule including isomers and epimers of RvE1, impurities and degradants induced by the test conditions. The chemical stability of […] or Na-RvE1 alone and complexed with cyclodextrins in solution was evaluated. Samples of the test articles dissolved in deionized water at a concentration of 2 mg/ml of RvE1 were placed in open test tubes and maintained at 40° C. and 75% relative humidity, exposed to air, over a period of 16 weeks.
# [3] = Oral pharmacokinetics, RvE1 in blood plasma after single oral gavage (Example 12); format: in vivo; conditions: mice
# Protocol: To establish the comparative oral pharmacokinetics (“PK”) of RvE1 MgLys alone (“RvE1 Control”) and RvE1 MgLys complexed with gamma-cyclodextrin (“RvE1 Complex”), a study was conducted to investigate RvE1 exposure in blood plasma following a single dose of RvE1 Control or RvE1 Complex administered via oral gavage at various timepoints up to 8 hours of 4 mg/kg of RvE1. Quantitative measurement of RvE1 in blood plasma was determined by HPLC-MS/MS performed on a Halo Guard column (Halo C18 4.6×150 mm, 2.7 μm), mounted on an Agilent HPLC system equipped with a UV detector (272 nm detection).
# Sixty five (65) male C57B16 mice were randomized into 3 experimental groups at 8 weeks of age: baseline control (“Baseline”, n=5), RvE1 Control (n=30) and the RvE1 Complex (n=30). Prior to administration of test article, the mice in the Baseline group were sacrificed and blood was drawn to establish the endogenous levels of RvE1 in plasma. The 60 remaining mice received a single dose of RvE1 Control or RvE1 Complex. Five (5) mice in each group were sacrificed at each of the following timepoints to enable the determination of an RvE1 concentration-versus-time curve: 15 minutes, 30 minutes, 1, 2—, 4- and 8-hours post-dose. At the time of sacrifice blood was drawn into EDTA-treated tubes and immediately frozen.
# [4] = Solid-state chemical stability by HPLC, 16 weeks accelerated conditions (Example 8); format: physicochemical
# Protocol: The stability of […] alone (“RvE1 Control”) and complexed with cyclodextrins (“RvE1 CD Complexes”) was evaluated. Samples of the test articles were placed in open test tubes and maintained at 40° C. and 75% relative humidity, exposed to air, for 16 weeks. […] Briefly, HPLC analysis was performed on a Halo Guard column (Halo C18 4.6×150 mm, 2.7 μm), mounted on an Agilent HPLC system equipped with a UV detector (272 nm detection). The mobile phase consisted of a gradient between solution A, water, and solution B, methanol, both containing 100 mM of ammonium formate at pH 4.0. The gradient program was 95-0% with respect to solution A and 5-100% with respect to solution B. The flow rate was 0.9 mL/min over 50 minutes. Lack of stability was indicated by a reduction in the area percent purity (area %) of the single major peak of RvE1 (retention time of 31.3 minutes) and the appearance of new HPLC peaks or an increase in the area % of pre-existing impurities. All HPLC measurements of RvE1 purity and degradant levels were calculated based on area percent relative to the detectable components of the molecule including isomers and epimers of RvE1, impurities and degradants induced by the test conditions.
# [5] = as above; format: physicochemical; conditions: 40° C., 75% relative humidity, exposed to air
# [6] = Solid-state physical stability, visual, ambient conditions 168 hours (Example 11); format: physicochemical; conditions: open test tubes, 18-22° C., relative humidity 52% to 72%
# Protocol: The solid-state physical stability of […] alone (“RvE1 Control”) […]-cyclodextrin complex (“RvE1 Complex”) was evaluated (FIG. 24A-D). Samples of the test articles as solids were placed in open test tubes under ambient conditions over a period of 168 hours, at temperature between 18-22° C. and relative humidity between 52% and 72%. The solid-state physical stability was assessed visually based on whether the substance retained its form as a solid powder or transitioned to a liquid form.
# [7] = accelerated conditions, baseline
# [8] = accelerated conditions, week 16
structure (smiles),measurement,setting,value
"CC[C@@H](O)/C=C/C=C/C[C@@H](O)/C=C/C=C/C=C/[C@@H](O)CCCC(=O)[O-].[Na+] [Na-RvE1, sodium RvE1]",RvE1 Area % (error +/− 1%) Baseline,[1],96.2%
same,RvE1 Area % (error +/− 1%) Baseline,[1]; listed as Na-RvE1 control,96.2%
same,% Change at Week 24 vs Baseline (degradation rate),[1],100.0%
same,% Change at Week 24 vs Baseline (degradation rate),[1]; listed as Na-RvE1 control,100%
same,RvE1 Area % (error +/− 1%) Week 8,[1],78.0%
same,RvE1 Area % (error +/− 1%) Week 16,[1],49.8%
same,RvE1 Area % (error +/− 1%) Week 24,[1]; week 24,0.0%
same,RvE1 Area % (error +/− 1%) Week 24,"[1]; week 24, listed as Na-RvE1 Control",0%
same,RvE1 Area % Baseline,[2],96.2%
same,% Change at Week 16 vs Baseline,[2],80.7%
same,RvE1 Area % Week 8,[2],36.0%
same,RvE1 Area % Week 16,[2]; week 16,18.6%
same,RvE1 Area % Week 16,"[2]; week 16, listed as Na-RvE1 Control",18.6%
"CC[C@@H](O)/C=C/C=C\C[C@@H](O)/C=C/C=C/C=C\[C@@H](O)CCCC(=O)O.CC[C@@H](O)/C=C/C=C\C[C@@H](O)/C=C/C=C/C=C\[C@@H](O)CCCC(=O)O.NCCCC[C@H](N)C(=O)[O-].NCCCC[C@H](N)C(=O)[O-].[Mg+2] [RvE1 Control, RvE1 magnesium dilysinate]",AUC (0 to 8 hrs),[3]; 4 mg/kg of RvE1,15.2 ng·h/mL
same,Cmax,[3]; 4 mg/kg of RvE1,45.5 ng/mL
same,Tmax,[3]; 4 mg/kg of RvE1,15 min
same,RvE1 plasma concentration 15 min,"[3]; 4 mg/kg of RvE1, 15 min",45.5 ng/mL
same,RvE1 plasma concentration 30 min,"[3]; 4 mg/kg of RvE1, 30 min",6.3 ng/mL
same,RvE1 plasma concentration 1 hr,"[3]; 4 mg/kg of RvE1, 1 hr",1.2 ng/mL
same,RvE1 plasma concentration 2 hr,"[3]; 4 mg/kg of RvE1, 2 hr",0.2 ng/mL
same,RvE1 plasma concentration 4 hr,"[3]; 4 mg/kg of RvE1, 4 hr",0.3 ng/mL
same,RvE1 plasma concentration 8 hr,"[3]; 4 mg/kg of RvE1, 8 hr",0.1 ng/mL
same,% Change at Week 16 vs Baseline (degradation rate),"[4]; 40° C., 75% relative humidity, exposed to air",14.1%
same,RvE1 Area % Week 8,"[4]; 40° C., 75% relative humidity, exposed to air, week 8",86.7%
same,RvE1 Area % Week 16,"[4]; 40° C., 75% relative humidity, exposed to air, week 16",80.7%
same,# of Deg. Peaks ≥0.20% Baseline,[4]; [7],6
same,# of Deg. Peaks ≥1.00% Baseline,[4]; [7],2
same,# of Deg. Peaks ≥0.20% Week 8,"[4]; accelerated conditions, week 8",19
same,# of Deg. Peaks ≥1.00% Week 8,"[4]; accelerated conditions, week 8",4
same,# of Deg. Peaks ≥0.20% Week 16,[4]; [8],19
same,# of Deg. Peaks ≥1.00% Week 16,[4]; [8],8
same,RvE1 Area % Baseline,"[4]; open test tubes, 40° C., 75% relative humidity, exposed to air, baseline",94%
same,RvE1 Area % (error +/− 1%) Baseline,[1]; listed as RvE1 Mg-Lys,94.8%
same,RvE1 Area % (error +/− 1%) Baseline,[1]; listed as RvE1 MgLys control,94.8%
same,% Change at Week 24 vs Baseline (degradation rate),[1]; listed as RvE1-MgLys control,16.6%
same,% Change at Week 24 vs Baseline (degradation rate),[1]; listed as RvE1 Mg-Lys,16.6%
same,RvE1 Area % (error +/− 1%) Week 8,[1],88.4%
same,RvE1 Area % (error +/− 1%) Week 16,[1],82.3%
same,RvE1 Area % (error +/− 1%) Week 24,"[1]; week 24, listed as RvE1-MgLys Control",79.1%
same,RvE1 Area % (error +/− 1%) Week 24,"[1]; week 24, listed as RvE1 Mg-Lys",79.1%
same,RvE1 Area % Baseline,[2],94.8%
same,% Change at Week 16 vs Baseline,[2],45.7%
same,RvE1 Area % Week 8,[2],84.3%
same,RvE1 Area % Week 16,"[2]; week 16, listed as RvE1-MgLys Control",51.5%
same,RvE1 Area % Week 16,"[2]; week 16, listed as RvE1 Mg-Lys",51.5%
same,RvE1 Area % Week 16,"[5]; week 16, listed as RvE1-MgLys",80.7%
same,RvE1 Area % Baseline,"[5]; open test tubes, baseline, listed as RvE1-MgLys",94.0%
same,"physical form, visual",[6]; 24 and 168 hours,gel-like substance
same,"physical form, visual",[6]; 8 hours,began to agglomerate and turn a darker color
same,"physical form, visual","[6]; 8 hours, listed as RvE1-Control",remained in powder form
same,"physical form, visual",[6]; baseline,powder form
